Results on 13 compounds are retold here after ChEMBL document CHEMBL1201862, “PubChem BioAssay data set” (2004).

SMILES strings stand for the structures.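 Dose response: 5 concentrations. Exposure: 48 h. Format: 96-well plates. Endpoint: linear interpolation; highest concentration if not reached. Abbreviation: GI50, concentration required for 50% inhibition of growth.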 Active and inactive are the calls of the source. No stated cut-off is given here; in the data, active = GI50 up to about 1.1 µM and inactive = higher. Where only a bound is given, the exact number is not on record here.

Assay in all cases: inhibition of tumour cell growth, NCI panel, 48 h
Assay [1] deals with SW-620.
For assay [2], the system named is RXF 393.
Assay [3] has as its system SK-MEL-5.
For assay [4], the system named is UACC-257.
Assay [5] has as its system NCI-H23.
Assay [6] deals with NCI-H226.
Assay [7] deals with 786-0.
For assay [8], the system named is T47D.
The test system of assay [9] is UACC-62.
Assay [10] relates to SNB-19.
Assay [11] relates to U-251.
Assay [12] deals with Malme-3M.
Assay [13] relates to MDA-N.
Assay [14] has as its system TK-10.
Assay [15] deals with CCRF-CEM.
Assay [16] relates to COLO 205.
Assay [17] concerns SK-MEL-2.
Assay [18] deals with BT-549.

On to `COc1ccc(C2=CC(c3ccc4c(c3)OCO4)c3c(c4ccccc4oc3=O)O2)cc1OC` (configuration not stated), for which the GI50 in assay [1] was 0.933 µM (active); in [2], 0.764 µM (active); in [3] it was 0.766 µM (active); in [4], > 100 µM (inactive); in assay [5], 2.51 µM (inactive); in [6] it was 0.546 µM (active). In addition, the GI50 in assay [7] was 1.13 µM (inactive); in [8] it was 0.685 µM (active); in assay [9], 0.424 µM (active); in assay [10] it was 2.53 µM (inactive); in assay [11], 1.98 µM (inactive); in [12], > 81.8 µM (inactive). In addition, the GI50 in [13] is 0.324 µM (active); in assay [14] it was 2.75 µM (inactive); in assay [15] it was 2.49 µM (inactive); in assay [16] it was 1.51 µM (inactive).

For the compound `COc1cc(NCc2ccc3nc(-c4ccccc4)c(N)nc3c2)cc(OC)c1OC`, the GI50 in assay [1] was 48.5 µM (inactive); in assay [2], 16 µM (inactive); in assay [3] it was 15.3 µM (inactive); in assay [4], 22.7 µM (inactive); in assay [5], 21.4 µM (inactive); in assay [6], 27.5 µM (inactive). The GI50 was 35.6 µM (inactive) in assay [7]; 25.9 µM (inactive) in [8]; 31 µM (inactive) in [17]; 29.4 µM (inactive) in assay [9]; 46.2 µM (inactive) in [10]; 39.3 µM (inactive) in assay [11]. Further, the GI50 in assay [12] was 24.9 µM (inactive); in [13], 27.5 µM (inactive); in assay [14] it was 41.4 µM (inactive); in assay [15] it was 31.6 µM (inactive); in assay [16] it was 18.8 µM (inactive).

Consider `CCCC1(CCC)c2cc(/C=N\O)ccc2-c2ccc(-c3ccc(C(C)(C)C)cc3)cc21`, for which the GI50 in assay [1] was 34.2 µM (inactive); in [3], 80.4 µM (inactive); in assay [4] it was 93.1 µM (inactive); in [5], 48.3 µM (inactive); in assay [7] it was 37.4 µM (inactive); in assay [8], 57.5 µM (inactive). Moreover, the GI50 in assay [17] is 29 µM (inactive); in assay [10], > 100 µM (inactive); in [11], > 10 µM (inactive); in assay [12], > 100 µM (inactive); in assay [13], 57.3 µM (inactive); in [14], 39 µM (inactive). The GI50 was 29.2 µM (inactive) in assay [15] and > 100 µM (inactive) in assay [16].

`COc1ccc2c(C)cc(=O)oc2c1OC`: the GI50 in [1], in [3], in [4], in assay [5], in [6] and in assay [7] was > 100 µM (inactive) in each case. The GI50 in assay [17], in assay [9], in assay [10], in assay [11], in [12] and in assay [13] was > 100 µM (inactive) throughout. The GI50 in [14], in assay [15] and in [16] was > 100 µM (inactive) throughout.

`Cc1nc2ccc(Cl)cc2c2c1CCS2`: the GI50 in assay [1] was > 100 µM (inactive); in [2], 47.5 µM (inactive); in [3] it was 27.6 µM (inactive); in assay [4], 97.7 µM (inactive); in assay [5], 75 µM (inactive); in assay [6], 51.6 µM (inactive). Moreover, the GI50 in assay [7] is 66.4 µM (inactive); in assay [8] it was > 100 µM (inactive); in assay [17] it was 57.9 µM (inactive); in assay [9] it was 99.8 µM (inactive); in assay [10], > 100 µM (inactive); in assay [11], > 100 µM (inactive). The GI50 in assay [12] is 90.2 µM (inactive); in assay [13] it was > 100 µM (inactive); in assay [14], 69.2 µM (inactive); in [15] it was 46 µM (inactive); in assay [16], 48.9 µM (inactive).

On to `ClC1=C(Cl)C2OC3C=CCC3OC2C(Cl)=C1Cl` (configuration not stated), for which the GI50 was 41.2 µM (inactive) in assay [1]; 28.4 µM (inactive) in assay [2]; 29.5 µM (inactive) in assay [3]; 34.5 µM (inactive) in [4]; 56.4 µM (inactive) in assay [5]; 95.3 µM (inactive) in assay [6]. Moreover, the GI50 was > 100 µM (inactive) in assay [7]; 2.47 µM (inactive) in assay [8]; 18.8 µM (inactive) in assay [17]; 52.8 µM (inactive) in assay [11]; 51.3 µM (inactive) in [13]; > 100 µM (inactive) in [14]. In addition, the GI50 in assay [15] is 40.1 µM (inactive).

With `CCCCOCn1c(=O)[nH]c(=O)c2ccccc21`, the GI50 in assay [1] is > 100 µM (inactive); in assay [2], 48.2 µM (inactive); in assay [3], 54.1 µM (inactive); in assay [4], 78.7 µM (inactive); in assay [6], 49.5 µM (inactive); in assay [7], > 100 µM (inactive). The GI50 was 91.8 µM (inactive) in assay [17]; > 100 µM (inactive) in [9]; 14.9 µM (inactive) in [10]; > 100 µM (inactive) in assay [11]; > 100 µM (inactive) in [13]; > 100 µM (inactive) in [14]. The GI50 in [15] and in [16] was > 100 µM (inactive) throughout.

For the compound `CCN(CC)CCN1CCN=C2c3cc(OC)ccc3Nc3c([N+](=O)[O-])ccc1c32`, the GI50 in assay [1] was 0.449 µM (active); in assay [2] it was 0.843 µM (active); in assay [3] it was 1.55 µM (inactive); in assay [4] it was 2.59 µM (inactive); in assay [5], 1.1 µM (active); in [7] it was 0.369 µM (active). Further, the GI50 in assay [8] is 5.65 µM (inactive); in [9] it was 1 µM (active); in [12] it was 1.54 µM (inactive); in assay [13], 1.04 µM (active); in [14], 2.8 µM (inactive); in assay [15], 0.388 µM (active). Moreover, the GI50 in assay [16] was 1 µM (active).

Take `Cc1cc(N(CCC#N)CCC#N)ccc1/N=N/c1ccc(C(=O)O)cc1`: the GI50 in [1], in assay [2], in [3], in assay [4], in [5] and in assay [6] was > 100 µM (inactive) in each case. The GI50 in assay [7], in assay [17], in assay [9], in [11], in [12] and in [14] was > 100 µM (inactive) each time. For the same compound, the GI50 in assay [16] is > 100 µM (inactive).

As to `COC(=O)CC1C2CC3C(C2=O)C13` (configuration not stated), the GI50 in assay [1], in assay [2], in assay [3], in assay [4], in [5] and in assay [6] was > 100 µM (inactive) each time. Besides, the GI50 in [7], in assay [8], in [17], in assay [9], in assay [10] and in [11] was > 100 µM (inactive) each time. For the same compound, the GI50 in assay [12], in assay [13], in [14], in assay [15] and in [16] was > 100 µM (inactive) throughout.

Turning to `COc1cc(Br)cc2cc(-c3cn4c(n3)sc3ccccc34)c(=O)oc12`, the GI50 was 20.8 µM (inactive) in assay [1]; 28.4 µM (inactive) in assay [3]; 38.5 µM (inactive) in assay [4]; 21.2 µM (inactive) in assay [5]; 25.1 µM (inactive) in assay [7]; 22.3 µM (inactive) in assay [17]. The GI50 in [9] was 22.6 µM (inactive); in assay [10], 32.7 µM (inactive); in [11], 25.2 µM (inactive); in assay [14], 45.4 µM (inactive); in assay [15], 20.4 µM (inactive); in assay [18], 24.3 µM (inactive). Also, the GI50 in assay [16] was 38.7 µM (inactive).

Turning to `O=S(=O)(O)c1cc(/N=N/c2c(O)ccc3ccccc23)c2c(S(=O)(=O)O)cccc2c1`, the GI50 in assay [1], in assay [2], in [3], in assay [4], in assay [5] and in assay [6] was > 100 µM (inactive) throughout. Further, the GI50 in assay [7], in assay [17], in assay [9], in assay [10], in assay [11] and in assay [12] was > 100 µM (inactive) throughout. The GI50 in assay [14], in [15], in assay [18] and in assay [16] was > 100 µM (inactive) in each case.

`OC[C@H]1O[C@@H](Oc2cc(O)cc(/C=C/c3ccc(O)cc3)c2)[C@H](O)[C@@H](O)[C@@H]1O` [PICEID]: the GI50 in assay [1], in assay [2], in assay [3], in [4], in [6] and in assay [7] was > 100 µM (inactive) throughout. The GI50 in [17], in assay [9], in [10], in assay [11], in assay [13] and in [14] was > 100 µM (inactive) throughout. For the same compound, the GI50 in assay [15] and in assay [18] was > 100 µM (inactive) each time.
